Where two headings read alike, the source gives them in different places.
Columns and labels:
HBV DNA = experiment: HBV in vitro test: HBV DNA in HepG2.2.15 culture supernatant by real time-qPCR; format: cell-based, Hepatitis B Virus (HBV)
Experimental: (§1) The content of HBV DNA in HepG2. 2. 15 cell culture supernatant was detected by a real-time quantitative qPCR assay (real time-qPCR), and the content of HBV surface antigen was detected by enzyme-linked immunosorbent assay (ELISA), the compound EC50 value was used as an index to evaluate the inhibitory effect of the compound on HBV.
(§2) 3.1. HepG2. 2. 15 cells (4×10^4 cells/well) was plated into a 96-well plate and cultured overnight at 37° C., 5% CO2.
(§3) 3.2. The next day, the compound was diluted to 8 concentrations, 3-folds gradients dilution. The compound of different gradients were added into the culture well, double duplicated the wells. The final concentration of the DMSO was 0.5% in the culture solution. 10 μM ETV was used as 100% inhibition control; 0.5% of DMSO was used as 0% inhibition control.
(§4) 3.3. On the fifth day, the culture solution was replaced by fresh culture solution containing the compound.
(§5) 3.4. On the eighth day, the culture solution in the culture well was collected, and the content of hepatitis B virus S antigen was measured by ELISA with partial samples; and still partial samples was taken for extraction of DNA using high-throughput DNA purification kit (Qiagen-51162).
3.6. 15 μL reaction mixture was added into each well of the 96-well PCR plate, then in each well was added 10 μL sample DNA or standard product of HBV DNA.
3.7. The qPCR plate was sealed with optical sealing film, centrifuged at 1500 rpm for 2 minutes, and then the HBV copy number of each sample was quantitatively detected by fluorescence quantitative qPCR. The operation procedure of qPCR is as follows
Calculation of the Inhibition Percentage % Inh.=(1−value in the sample/DMSO control group value)×100%.
The dose-response curves was fitted by GraphPad Prism software, and the 50% inhibited concentration EC50 value of the compound against HBV was calculated.

[1] = tested on: HBV surface antigen (HBsAg); experiment: HBV in vitro test: HBV surface antigen in HepG2.2.15 culture supernatant by ELISA; format: cell-based, Hepatitis B Virus (HBV)
Experimental: as §1, §2, §3, §4, §5
3.9. Content determination of hepatitis B virus S antigen measured by ELISA
50 μL sample and standard sample were taken and added into the reaction plate respectively, then 50 μL enzyme conjugate was added into each of the wells, shaked to mix well, then kept in warm bath at 37° C. for 60 min, and the plate was washed with cleansing solution for 5 times, 50 μL luminescent substrate was added into each wells, mixed well and reacted at r.t. for 10 min in the dark, the chemiluminescence intensity was finally detected with ELISA. The inhibition percentage of each compound was calculated by the following formula: inhibition rate (%)=(1−value in sample/DMSO control group value)×100%. The dose-response curves was fitted by GraphPad Prism software, and the 50% inhibited concentration EC50 value of the compound against HBV was calculated.

[2] = Hepatitis B virus, HepG2.2.15, read-out: HBV-DNA experimental results EC50
[3] = Hepatitis B virus, HepG2.2.15, read-out: HBsAg experimental results EC50
[4] = Hepatitis B virus, HepG2.2.15, HepG2. 2. 15 cell culture supernatant, collected on the eighth day, real time-qPCR, read-out: HBV-DNA experimental results EC50

Row | SMILES | EC50 (HBV DNA; [2]) [nM] | EC50 [1, 3] [nM] | EC50 (HBV DNA; [4]) [nM] | EC50 (HBV DNA; HepG2. 2. 15 cell culture supernatant, collected on the eighth day, real time-qPCR, read-out: HBV-DNA experimental results EC50) [nM] | EC50 ([1]; HepG2. 2. 15 cell culture supernatant, collected on the eighth day, ELISA, read-out: HBsAg experimental results EC50) [nM]
1 | COCCCOc1cc2c(cc1Cl)-c1cc(=O)c(C(=O)O)cn1C(c1nccs1)O2 (stereo not drawn) [Embodiment 14] | 6.88 | 6.88 |  |  | 
2 | COCCCOc1cc2c(cc1Cl)-c1cc(=O)c(C(=O)O)cn1C(c1cc(F)ccc1F)O2 (stereo not drawn) [Embodiment 32] |  | 71 | 35.2 |  | 
3 | COCCCOc1cc2c(cc1OC)-c1cc(=O)c(C(=O)O)cn1C(c1cscn1)O2 (stereo not drawn) [Embodiment 43] |  | 15.4 | 19.4 |  | 
4 | COc1cc2c(cc1Cl)-c1cc(=O)c(C(=O)O)cn1C(c1ccccc1)O2 (stereo not drawn) [Embodiment 1] |  | 27.6 | 11.8 |  | 
5 | COCCCOc1cc2c(cc1Cl)-c1cc(=O)c(C(=O)O)cn1C(c1cccc(C)c1)O2 (stereo not drawn) [Embodiment 22] |  | 38.2 | 20.6 |  | 
6 | O=C(O)c1cn2c(cc1=O)-c1cc(Cl)c(OCCCCCO)cc1OC2c1ccccc1 (stereo not drawn) [Embodiment 8] |  | 66.2 | 20.8 |  | 
7 | O=C(O)c1cn2c(cc1=O)-c1cc(Cl)c(OCCCN3CCCC3=O)cc1OC2c1ccccc1 (stereo not drawn) [Embodiment 12] |  | 213 | 78.1 |  | 
8 | Cc1csc(C2Oc3cc(OCC4CC4)c(Cl)cc3-c3cc(=O)c(C(=O)O)cn32)n1 (stereo not drawn) [Embodiment 42] |  | 7.88 | 2.19 |  | 
9 | COCCCOc1cc2c(cc1Cl)-c1cc(=O)c(C(=O)O)cn1C(c1cc(F)cc(OC)c1)O2 (stereo not drawn) [Embodiment 24] |  | 35.5 | 59.3 |  | 
10 | CC(C)(CO)COc1cc2c(cc1Cl)-c1cc(=O)c(C(=O)O)cn1C(c1ccccc1)O2 (stereo not drawn) [Embodiment 2] |  | 55.8 | 34.5 |  | 
11 | C#CCOc1cc2c(cc1Cl)-c1cc(=O)c(C(=O)O)cn1C(c1ccccc1)O2 (stereo not drawn) [Embodiment 9] |  | 138 | 74.1 |  | 
12 | COCCCOc1cc2c(cc1Cl)-c1cc(=O)c(C(=O)O)cn1C(c1ccccc1F)O2 (stereo not drawn) [Embodiment 19] |  | 20.9 | 3.88 |  | 
13 | COCCCOc1cc2c(cc1Cl)-c1cc(=O)c(C(=O)O)cn1C(c1cccc(F)c1F)O2 (stereo not drawn) [Embodiment 31] |  | 203 | 90.5 |  | 
14 | COCCCOc1cc2c(cc1Cl)-c1cc(=O)c(C(=O)O)cn1C(c1ccc(Cl)cc1)O2 (stereo not drawn) [Embodiment 17] | 254 | 254 |  |  | 
15 | O=C(O)c1cn2c(cc1=O)-c1cc(Cl)c(OCC(F)(F)CO)cc1OC2c1ccccc1 (stereo not drawn) [Embodiment 10] |  | 102 | 51 |  | 
16 | COCCCOc1cc2c(cc1Cl)-c1cc(=O)c(C(=O)O)cn1C(c1csc(Cl)c1Cl)O2 (stereo not drawn) [Embodiment 48] |  | 103 | > 1000 |  | 
17 | COCCCOc1cc2c(cc1Cl)-c1cc(=O)c(C(=O)O)cn1C(c1ccc(C)cc1)O2 (stereo not drawn) [Embodiment 23] |  | 127 | 85.9 |  | 
18 | O=C(O)c1cn2c(cc1=O)-c1cc(Cl)c(OCCCO)cc1OC2c1ccccc1 (stereo not drawn) [Embodiment 6] |  | 20.3 | 6.04 |  | 
19 | O=C(O)c1cn2c(cc1=O)-c1cc(Cl)c(OCC(F)F)cc1OC2c1ccccc1 (stereo not drawn) [Embodiment 4] |  | 31.9 | 15 |  | 
20 | COCCCOc1cc2c(cc1Cl)-c1cc(=O)c(C(=O)O)cn1C(c1c(F)cccc1Cl)O2 (stereo not drawn) [Embodiment 27] |  | 39.1 | 23.6 |  | 
21 | COCCCOc1cc2c(cc1Cl)-c1cc(=O)c(C(=O)O)cn1C(c1ncc(C)s1)O2 (stereo not drawn) [Embodiment 41] |  | 58 | 17.8 |  | 

Row | SMILES | EC50 (HBV DNA; [2]) [nM] | EC50 [1, 3] [nM] | EC50 (HBV DNA; [4]) [nM] | EC50 (HBV DNA; HepG2. 2. 15 cell culture supernatant, collected on the eighth day, real time-qPCR, read-out: HBV-DNA experimental results EC50) [nM] | EC50 ([1]; HepG2. 2. 15 cell culture supernatant, collected on the eighth day, ELISA, read-out: HBsAg experimental results EC50) [nM]
22 | O=C(O)c1cn2c(cc1=O)-c1cc(Cl)c(OCCN3CCOCC3)cc1OC2c1ccccc1 (stereo not drawn) [Embodiment 5] |  | 50 | 15.1 |  | 
23 | O=C(O)c1cn2c(cc1=O)-c1cc(Cl)c(OCC3CC3)cc1OC2c1ncc(Cl)s1 (stereo not drawn) [Embodiment 44] |  | 212 | 129 |  | 
24 | COCCCOc1cc2c(cc1Cl)-c1cc(=O)c(C(=O)O)cn1C(c1cccc(F)c1)O2 (stereo not drawn) [Embodiment 20] |  | 22.5 | 11 |  | 
25 | O=C(O)c1cn2c(cc1=O)-c1cc(Cl)c(OCCO)cc1OC2c1ccccc1 (stereo not drawn) [Embodiment 7] |  | 299 | 211 |  | 
26 | COCCCOc1cc2c(cc1Cl)-c1cc(=O)c(C(=O)O)cn1C(c1ccc(OC)cc1F)O2 (stereo not drawn) [Embodiment 34] |  | 29.6 | 21.3 |  | 
27 | COCCCOc1cc2c(cc1Cl)-c1cc(=O)c(C(=O)O)cn1C(c1ccccc1C)O2 (stereo not drawn) [Embodiment 21] |  | 16.3 | 7.12 |  | 
28 | COCCCOc1cc2c(cc1Cl)-c1cc(=O)c(C(=O)O)cn1C(c1ccc(F)cc1F)O2 (stereo not drawn) [Embodiment 33] |  | 10.2 | 12.6 |  | 
29 | COCCCOc1cc2c(cc1Cl)-c1cc(=O)c(C(=O)O)cn1C(c1cc(F)ccc1OC)O2 (stereo not drawn) [Embodiment 25] |  | 35.9 | 18.7 |  | 
30 | COCCCOc1cc2c(cc1Cl)-c1cc(=O)c(C(=O)O)cn1C(c1cncs1)O2 (stereo not drawn) [Embodiment 38] |  | 12.3 | 20.4 |  | 
31 | COCCCOc1cc2c(cc1Cl)-c1cc(=O)c(C(=O)O)cn1C(c1nc(C)c(C)s1)O2 (stereo not drawn) [Embodiment 28] |  | 152 | 278 |  | 
32 | COCCCOc1cc2c(cc1Cl)-c1cc(=O)c(C(=O)O)cn1C(c1cc(OC)ccc1F)O2 (stereo not drawn) [Embodiment 26] |  | 101 | 152 |  | 
33 | COCCCOc1cc2c(cc1Cl)-c1cc(=O)c(C(=O)O)cn1C(c1ccc(F)cc1)O2 (stereo not drawn) [Embodiment 18] |  | 73.7 | 40.8 |  | 
34 | COCCCOc1cc2c(cc1Cl)-c1cc(=O)c(C(=O)O)cn1C(c1cc(F)cc(F)c1)O2 (stereo not drawn) [Embodiment 30] |  | 28.2 | 18.5 |  | 
35 | COCCCOc1cc2c(cc1Cl)-c1cc(=O)c(C(=O)O)cn1C(c1cccc(Cl)c1)O2 (stereo not drawn) [Embodiment 16] | 45.3 | 45.3 |  |  | 
36 | COCCCOc1cc2c(cc1Cl)-c1cc(=O)c(C(=O)O)cn1C(c1c(F)cccc1F)O2 (stereo not drawn) [Embodiment 29] |  | 12.2 | 4.11 |  | 
37 | COCCCOc1cc2c(cc1Cl)-c1cc(=O)c(C(=O)O)cn1C(c1ccccc1Cl)O2 (stereo not drawn) [Embodiment 15] |  |  | 8.2 |  | 
38 | COCCCOc1cc2c(cc1Cl)-c1cc(=O)c(C(=O)O)cn1C(c1cnsc1C)O2 (stereo not drawn) [Embodiment 35] |  |  |  | 25.1 | 11
39 | COCCOc1cc2c(cc1Cl)-c1cc(=O)c(C(=O)O)cn1C(c1ccccc1)O2 (stereo not drawn) [Embodiment 3] |  | 47.6 | 27.6 |  | 
40 | CS(=O)(=O)CCCOc1cc2c(cc1Cl)-c1cc(=O)c(C(=O)O)cn1C(c1ccccc1)O2 (stereo not drawn) [Embodiment 11] |  | 73.9 | 40.8 |  | 
41 | COCCCOc1cc2c(cc1Cl)-c1cc(=O)c(C(=O)O)cn1C(c1cnsc1)O2 (stereo not drawn) [Embodiment 37] |  | 26.6 | 10.6 |  | 

— US11008331B2, “Hepatitis B virus surface antigen inhibitor” (FUJIAN COSUNTER PHARMACEUTICAL CO., LTD., priority 2017, dated 2021)
